According to article PMC3466195, “Potassium Acts as a GTPase-Activating Element on Each Nucleotide-Binding Domain of the Essential Bacillus subtilis EngA” (PLoS ONE, 2012):
Read-outs that look alike come from different tables or passages of the source.

Columns and labels:
B. subtilis EngA [1] = molecular target: T1, B. subtilis EngA (Bacillus subtilis, UniProt P50743); assay: Nucleotide binding monitored by intrinsic tryptophan fluorescence; settings: read-out: KD
T1 construct: full-length EngA (named hereafter as EngA) and its two shortened EngA variants, GD1 and GD2-KH were overexpressed in E. coli; His-tag (from pET15b; purified on Ni-IDA) (N); made in house; host or cells: E. coli C41(DE3)
T1 sequence (P50743 1-436): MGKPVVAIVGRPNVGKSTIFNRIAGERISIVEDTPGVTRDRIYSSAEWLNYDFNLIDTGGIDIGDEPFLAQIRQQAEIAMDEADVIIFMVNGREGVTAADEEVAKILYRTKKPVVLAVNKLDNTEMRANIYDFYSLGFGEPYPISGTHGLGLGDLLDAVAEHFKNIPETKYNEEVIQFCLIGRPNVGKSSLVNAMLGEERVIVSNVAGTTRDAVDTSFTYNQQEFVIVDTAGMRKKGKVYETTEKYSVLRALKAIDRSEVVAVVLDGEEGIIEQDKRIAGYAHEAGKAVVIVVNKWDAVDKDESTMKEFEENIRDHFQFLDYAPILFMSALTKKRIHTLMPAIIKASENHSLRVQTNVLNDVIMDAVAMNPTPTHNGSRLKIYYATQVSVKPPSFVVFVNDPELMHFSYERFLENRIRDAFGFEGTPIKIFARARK
Description: (§1) Fluorescence measurements were performed essentially as described previously for the unmodified nucleotides or the N-methylanthraniloyl-GDP (MANT-GDP) analogue using a PTI QuantaMaster 4 spectrofluorimeter, [62]. Dissociation constants (K D) for nucleotides were calculated by monitoring intrinsic tryptophan fluorescence variation using 295 nm excitation wavelength, with a slit width of 2 nm, and scanning emission fluorescence between 310 and 400 nm (for the unmodified nucleotide) or 400 and 500 nm (for MANT-GDP), with a slit width of 4 nm. For the intrinsic tryptophan fluorescence, inner filter effect was corrected using N-Acetyltryptophanamide (NATA) as a reference. 1 µM NATA or 0.5 µM of YphC were mixed with 50 mM Tris/HCl pH 8, 2 mM MgCl2, NaCl or KCl and increasing amount of nucleotide (GDP, GMPPNP or MANT-GDP), as indicated in the figure legends. The fluorescence was normalized respective to the integrated value of the fluorescence peak obtained in the absence of unmodified nucleotide (between 310 and 400 nm) or MANT-GDP (between 400 and 500 nm). The data were fitted using the GraFit 5.0.11 software with the following equation: [drawing 1] where F is the relative fluorescence intensity in the presence of nucleotide, F min is the relative fluorescence in the absence of nucleotide, F max is the fluorescence intensity at saturating concentration of nucleotide, L is the nucleotide concentration, E is the protein concentration and K D is the dissociation constant of the protein-nucleotide complex.

[2] = molecular target: T2, GD1 (shortened B. subtilis EngA variant) (Bacillus subtilis, UniProt P50743); assay: as above
T2 construct: two shortened EngA variants that only contain GD1 or GD2-KH; His-tag (from pET15b; purified on Ni-IDA) (N); made in house; host or cells: E. coli C41(DE3)
Description: as §1

[3] = molecular target: T3, GD2-KH (shortened B. subtilis EngA variant) (Bacillus subtilis, UniProt P50743); assay: as above
T3 construct: two shortened EngA variants that only contain GD1 or GD2-KH; His-tag (from pET15b; purified on Ni-IDA) (N); made in house; host or cells: E. coli C41(DE3)
Description: as §1

EngA = molecular target: T4, EngA (Bacillus subtilis, UniProt P50743); assay: Fluorescence-based Thermal Shift Assay (TSA); assay type: binding; settings: EngA with 1 mM nucleotide; no effector Tm 41.5
T4 construct: full-length EngA (named hereafter as EngA) and its two shortened EngA variants, GD1 and GD2-KH were overexpressed in E. coli; His-tag (from pET15b; purified on Ni-IDA) (N); made in house; host or cells: E. coli C41(DE3)
T4 sequence (P50743 1-436): T1 sequence (P50743 1-436)
Description: (§2) Assays were performed into a 96-well thin-wall PCR plate (BioRad) using an IQ5 96-well format real-time PCR instrument (Bio-Rad) over a temperature range from 20°C to 90°C with temperature increments of 0.2°C [64]. Assay samples (23 µl) contained 50 mM Tris/HCl pH 8, 0.5 mg/ml of EngA or 1.5 mg/ml of GD1 or GD2-KH, and concentration of salt and/or nucleotides as indicated, and 2 µl of SYPRO Orange solution (Molecular Probes, Eugene, OR, 500x in DMSO diluted 5 times in water) was added. The plates were heated and changes in fluorescence for the environmentally sensitive dye SYPRO Orange were monitored through a charge-coupled device (CCD) camera. The melting temperature (Tm) values for each protein were determined graphically from the fluorescence first derivative of the melting curves. The wavelengths for excitation and emission were 470 nm and 570 nm, respectively.

GD1 [4] = molecular target: T5, GD1 (Bacillus subtilis, UniProt P50743); assay: Fluorescence-based Thermal Shift Assay (TSA); assay type: binding; settings: GD1 with 1 mM nucleotide; no effector Tm 51
T5 construct: two shortened EngA variants that only contain GD1 or GD2-KH; His-tag (from pET15b; purified on Ni-IDA) (N); made in house; host or cells: E. coli C41(DE3)
T5 sequence (P50743 4-167 limits assumed): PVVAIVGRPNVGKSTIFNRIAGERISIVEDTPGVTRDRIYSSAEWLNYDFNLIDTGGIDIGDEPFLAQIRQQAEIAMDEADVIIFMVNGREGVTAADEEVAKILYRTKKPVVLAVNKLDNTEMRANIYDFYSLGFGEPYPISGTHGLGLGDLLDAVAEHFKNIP
Description: as §2

GD2-KH [5] = molecular target: T6, GD2-KH (Bacillus subtilis, UniProt P50743); assay: Fluorescence-based Thermal Shift Assay (TSA); assay type: binding; settings: GD2-KH with 1 mM nucleotide; no effector Tm 42.8
T6 construct: two shortened EngA variants that only contain GD1 or GD2-KH; His-tag (from pET15b; purified on Ni-IDA) (N); made in house; host or cells: E. coli C41(DE3)
T6 sequence (P50743 173-436): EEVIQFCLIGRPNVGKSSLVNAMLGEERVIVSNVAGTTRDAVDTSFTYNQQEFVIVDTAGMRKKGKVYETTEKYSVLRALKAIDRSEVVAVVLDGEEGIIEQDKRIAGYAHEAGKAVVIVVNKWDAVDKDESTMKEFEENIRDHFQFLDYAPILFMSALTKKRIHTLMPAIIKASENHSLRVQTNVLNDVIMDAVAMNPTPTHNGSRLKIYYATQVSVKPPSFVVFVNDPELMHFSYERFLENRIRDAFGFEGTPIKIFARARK
Description: as §2

B. subtilis EngA [6] = molecular target: T7, B. subtilis EngA (Bacillus subtilis, UniProt P50743); assay type: biochemical; settings: for Km / Vmax / kcat: GTP hydrolysis by EngA; for kcat: fitted; for GTPase activity corresponding to 100%: wild-type EngA, 300 mM KCl
T7 construct: full-length EngA (named hereafter as EngA) and its two shortened EngA variants, GD1 and GD2-KH were overexpressed in E. coli; His-tag (from pET15b; purified on Ni-IDA) (N); made in house; host or cells: E. coli C41(DE3)
Description: (§3) GTPase activities were determined using a coupled-enzymatic assay containing pyruvate kinase and lactate dehydrogenase as previously described. The proteins (2 µM or 8 µM of EngA in the presence of KCl or NaCl, respectively, and 4 µM for GD1 and 12.5 µM for GD2-KH) and the coupled assay system containing 50 mM Tris/HCl pH 8, 4 mM phosphoenol pyruvate, 0.4 mM NADH, 1 mM MgCl2, 30 µg pyruvate kinase and 15 µg lactate dehydrogenase, were mixed into a quartz cuvette (final volume of 750 µl) in the presence of GTP (up to 1 mM) and salts, either KCl or NaCl, as indicated in the figure legends. When the GTPase and XTPase activities of the wild-type EngA and the single point mutants were studied (Fig. 7), the assay medium (final volume of 500 µl) contained 3 mM MgCl2 and the pyruvate kinase was increased to 120 µg to ensure an immediate conversion of XDP back into XTP. The reaction was started by adding 3.2 µM or 0.8 µM of wild-type EngA or single point mutants in the absence or presence of 300 mM K^+, respectively. GTP or XTP hydrolysis was monitored by following the change in absorbance at 340 nm upon conversion of NADH to NAD^+, for 10 min at 37°C, using either a Hitachi U3350 or a Safas UVmc^2 spectrophotometer. The slope measured (ΔDO/min) was used to calculate the activity of the protein taking into account the εNADH340nm = 6220 l.mol^−1.cm^−1. Control experiments were systematically performed in the absence of nucleotides (protein alone) or in the absence of proteins (nucleotides alone) and the activities measured in all cases were negligible. Between many different EngA preparations, the specific activities measured at 1 mM GTP varied between 100–130 nmoles/min/mg protein.

GD1 [7] = molecular target: T5, GD1; assay: GTP hydrolysis coupled-enzymatic assay; assay type: biochemical; settings: GD1, absence of K+
Description: as §3

GD2-KH [8] = molecular target: T6, GD2-KH; assay: GTP hydrolysis coupled-enzymatic assay; assay type: biochemical; settings: GD2-KH, absence of K+
Description: as §3

T. maritima EngA = settings: cited from earlier work
E. coli EngA = tested on: E. coli EngA; set-up: method as in PMID 16963571; settings: cited from earlier work
S. typhimurium EngA = molecular target: S. typhimurium EngA; set-up: method as in PMID 17905831; settings: cited from earlier work
M. smegmatis EngA = tested on: M. smegmatis EngA; set-up: method as in PMID 22506030; settings: cited from earlier work

Nc1nc2c(ncn2[C@@H]2O[C@H](COP(=O)(O)OP(=O)(O)NP(=O)(O)O)[C@@H](O)[C@H]2O)c(=O)[nH]1 [GMPPNP]
Kd (B. subtilis EngA [1]; 300 mM KCl): 18.8 ± 2.8 µM | Kd (B. subtilis EngA [1]; 300 mM NaCl): 16.5 ± 3.7 µM | Kd (B. subtilis EngA [1]; no salt (absence of K+), 2 mM MgCl2, 25°C): 25.7 ± 2.8 µM | Kd ([2]; GD1, 300 mM KCl): 35.7 ± 4.9 µM | Kd ([2]; GD1, 300 mM NaCl): 17.8 ± 2.4 µM | Kd ([3]; 300 mM KCl): 6.8 ± 2 µM | Kd ([3]; 300 mM NaCl): 15.2 ± 1.3 µM | Tm (EngA): 48.8 °C | Tm (GD1 [4]): 55.5 °C | Tm (GD2-KH [5]): 48.3 °C

Nc1nc2c(ncn2[C@@H]2O[C@H](COP(=O)(O)OP(=O)(O)OP(=O)(O)O)[C@@H](O)[C@H]2O)c(=O)[nH]1 [GTP]
specific activity (B. subtilis EngA [6]; 1 mM GTP, different EngA preparations): 100–130 nmoles/min/mg protein | GTPase activity (kcat) (B. subtilis EngA [6]; EngA, absence of K+): 0.005 to 0.0083 s⁻¹ | Km (B. subtilis EngA [6]; 300 mM K+): 153 µM | Vmax (B. subtilis EngA [6]; 300 mM K+): 144.5±3.4 nmol/min/mg protein | kcat (B. subtilis EngA [6]; 300 mM K+): ~0.123 s⁻¹ | Vmax (B. subtilis EngA [6]; absence of K+): 6.1±0.2 nmol/min/mg protein | Km (B. subtilis EngA [6]; no K+): 111 µM | kcat (B. subtilis EngA [6]; no K+): ~0.005 s⁻¹ | GTPase activity corresponding to 100% (B. subtilis EngA [6]; 200 µM nucleotide): 77 µmol GTP hydrolyzed/min/mg proteins | GTPase activity corresponding to 100% (B. subtilis EngA [6]; 1 mM GTP): 100 µmol GTP hydrolyzed/min/mg proteins | GTPase activity (GD1 [7]): ~0.6 min⁻¹ | GTPase activity (GD2-KH [8]): 0.004 min⁻¹ | kcat (T. maritima EngA; 400 mM K+): 0.0145 s⁻¹ | Km (T. maritima EngA; GTP, T. maritima EngA): 110 µM | kcat (E. coli EngA; 400 mM K+): 0.0193 s⁻¹ | Km (E. coli EngA; GTP, E. coli EngA): 143 µM | Kd (S. typhimurium EngA; higher-affinity site (proposed GD1)): ~12 µM | Kd (S. typhimurium EngA; lower-affinity site (proposed GD2)): > 100 µM | Km (M. smegmatis EngA; GTP, M. smegmatis EngA): 39 µM | kcat (M. smegmatis EngA; absence of K+): 8.3e-05 s⁻¹

[Na+] [sodium]
effect of salt on the GTPase activity of EngA (B. subtilis EngA [6]; K+ replaced by other monovalent cation, 1 mM GTP): no effect
